Here are results for two molecules from ChEMBL document CHEMBL1201862, “PubChem BioAssay data set” (2004).

For assay [1], the system named is HEK293. Briefly: EBV LMP1 TES2 canonical NF-kB signalling blockers – cell-based, HEK293, luciferase, cherry-pick, dose response (AID 588343). The format is functional. The following applies: Homo sapiens.
Assay [2] has as its target T1, Replicative DNA helicase DnaB (Mycobacterium tuberculosis, UniProt P9WMR3).
T1 sequence (P9WMR3 whole entry): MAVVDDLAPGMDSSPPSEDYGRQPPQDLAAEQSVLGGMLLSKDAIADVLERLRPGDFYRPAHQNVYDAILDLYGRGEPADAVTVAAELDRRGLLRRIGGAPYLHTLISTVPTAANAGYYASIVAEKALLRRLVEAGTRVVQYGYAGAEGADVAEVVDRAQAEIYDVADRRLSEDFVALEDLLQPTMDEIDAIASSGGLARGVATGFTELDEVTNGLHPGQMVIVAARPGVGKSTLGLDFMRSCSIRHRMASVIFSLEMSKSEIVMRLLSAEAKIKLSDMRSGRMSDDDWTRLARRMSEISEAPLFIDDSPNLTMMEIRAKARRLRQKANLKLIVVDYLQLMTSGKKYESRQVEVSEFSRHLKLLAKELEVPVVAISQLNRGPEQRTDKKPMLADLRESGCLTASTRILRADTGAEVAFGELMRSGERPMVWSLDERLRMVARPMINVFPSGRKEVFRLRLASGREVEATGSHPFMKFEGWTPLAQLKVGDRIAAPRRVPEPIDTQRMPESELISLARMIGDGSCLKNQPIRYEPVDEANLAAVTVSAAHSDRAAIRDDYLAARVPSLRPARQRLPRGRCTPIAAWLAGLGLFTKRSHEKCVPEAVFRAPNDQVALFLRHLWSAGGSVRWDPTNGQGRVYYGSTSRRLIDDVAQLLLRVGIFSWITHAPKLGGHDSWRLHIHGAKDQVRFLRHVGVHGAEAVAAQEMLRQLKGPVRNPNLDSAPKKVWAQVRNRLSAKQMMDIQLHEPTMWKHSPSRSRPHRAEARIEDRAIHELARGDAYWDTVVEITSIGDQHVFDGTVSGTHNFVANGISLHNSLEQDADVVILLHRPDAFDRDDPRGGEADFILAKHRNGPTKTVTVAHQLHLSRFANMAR
The experiment in a line: DnaB intein splicing inhibitors, dose response, biochemical, cell-free fluorescence (AID 449749). Format: functional.

The subject of assay [3] is Vero. The experiment in a line: viability of Vero cells under compound – cytotoxicity control for flavivirus capping enzyme inhibitors (AID 588742). Format: functional. The following applies: Chlorocebus sabaeus.
In assay [4] the target is Latent membrane protein 1 (Human herpesvirus 4 (strain B95-8), UniProt P03230). The experiment in a line: LMP1 TES1 pathway selectivity over dsRED control – imaging, HEK293T, dual-color eGFP/dsRED, cherry-picks, selectivity assay for LMP1 NF-kB inhibitor project, dose response (AID 588398). The format is functional, cell-based.
Chain of Latent membrane protein 1 (P03230 whole entry): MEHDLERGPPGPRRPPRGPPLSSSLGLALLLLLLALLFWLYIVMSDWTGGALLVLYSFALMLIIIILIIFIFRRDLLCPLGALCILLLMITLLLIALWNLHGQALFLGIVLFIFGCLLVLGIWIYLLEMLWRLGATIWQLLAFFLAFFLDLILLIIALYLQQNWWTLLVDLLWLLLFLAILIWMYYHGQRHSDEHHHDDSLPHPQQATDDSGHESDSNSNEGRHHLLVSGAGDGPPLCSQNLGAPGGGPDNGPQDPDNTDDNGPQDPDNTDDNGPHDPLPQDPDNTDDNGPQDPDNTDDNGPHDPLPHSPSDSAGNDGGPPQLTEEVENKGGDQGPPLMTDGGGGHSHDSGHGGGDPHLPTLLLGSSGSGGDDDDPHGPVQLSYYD
Assay [5] addresses T2, Protein RecA (Mycobacterium tuberculosis, UniProt P9WHJ3).
T2 sequence (P9WHJ3 whole entry): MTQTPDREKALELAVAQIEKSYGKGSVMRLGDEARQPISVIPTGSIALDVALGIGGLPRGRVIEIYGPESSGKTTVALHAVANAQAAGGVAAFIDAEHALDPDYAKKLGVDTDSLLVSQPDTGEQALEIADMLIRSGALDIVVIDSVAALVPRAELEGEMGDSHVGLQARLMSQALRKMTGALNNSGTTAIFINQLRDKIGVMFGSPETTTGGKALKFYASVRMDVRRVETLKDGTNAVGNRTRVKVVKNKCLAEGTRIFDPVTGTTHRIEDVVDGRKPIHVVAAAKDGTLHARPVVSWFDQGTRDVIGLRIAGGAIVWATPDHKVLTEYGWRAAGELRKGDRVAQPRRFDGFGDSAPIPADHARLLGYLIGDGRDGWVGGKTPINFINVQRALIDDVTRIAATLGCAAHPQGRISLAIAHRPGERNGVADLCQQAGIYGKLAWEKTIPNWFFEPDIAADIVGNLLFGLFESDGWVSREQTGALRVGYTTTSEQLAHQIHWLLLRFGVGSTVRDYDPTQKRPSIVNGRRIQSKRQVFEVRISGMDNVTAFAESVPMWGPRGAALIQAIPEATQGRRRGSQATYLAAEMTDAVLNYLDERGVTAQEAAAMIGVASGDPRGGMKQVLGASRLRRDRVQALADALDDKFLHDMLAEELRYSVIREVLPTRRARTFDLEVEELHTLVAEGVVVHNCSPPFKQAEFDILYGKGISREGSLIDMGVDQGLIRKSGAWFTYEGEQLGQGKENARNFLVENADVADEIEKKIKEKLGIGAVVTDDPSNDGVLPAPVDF
Briefly: Fluorescence Cell-Free Homogeneous Dose Retest to Identify Inhibitors of RecA-Intein Splicing Activity. [Related pubchem assays (depositor defined):AID2097, AID2223, AID489010, AID492950]. The format is functional.

Assay [6] deals with Genome polyprotein (dengue virus type 2, UniProt P29990). Briefly: flavivirus cap methylation enzyme inhibition – biochemical, confirmation dose response, primary screen (AID 588689). The format is functional.
Chain of Genome polyprotein (P29990 2492-3391 limits assumed): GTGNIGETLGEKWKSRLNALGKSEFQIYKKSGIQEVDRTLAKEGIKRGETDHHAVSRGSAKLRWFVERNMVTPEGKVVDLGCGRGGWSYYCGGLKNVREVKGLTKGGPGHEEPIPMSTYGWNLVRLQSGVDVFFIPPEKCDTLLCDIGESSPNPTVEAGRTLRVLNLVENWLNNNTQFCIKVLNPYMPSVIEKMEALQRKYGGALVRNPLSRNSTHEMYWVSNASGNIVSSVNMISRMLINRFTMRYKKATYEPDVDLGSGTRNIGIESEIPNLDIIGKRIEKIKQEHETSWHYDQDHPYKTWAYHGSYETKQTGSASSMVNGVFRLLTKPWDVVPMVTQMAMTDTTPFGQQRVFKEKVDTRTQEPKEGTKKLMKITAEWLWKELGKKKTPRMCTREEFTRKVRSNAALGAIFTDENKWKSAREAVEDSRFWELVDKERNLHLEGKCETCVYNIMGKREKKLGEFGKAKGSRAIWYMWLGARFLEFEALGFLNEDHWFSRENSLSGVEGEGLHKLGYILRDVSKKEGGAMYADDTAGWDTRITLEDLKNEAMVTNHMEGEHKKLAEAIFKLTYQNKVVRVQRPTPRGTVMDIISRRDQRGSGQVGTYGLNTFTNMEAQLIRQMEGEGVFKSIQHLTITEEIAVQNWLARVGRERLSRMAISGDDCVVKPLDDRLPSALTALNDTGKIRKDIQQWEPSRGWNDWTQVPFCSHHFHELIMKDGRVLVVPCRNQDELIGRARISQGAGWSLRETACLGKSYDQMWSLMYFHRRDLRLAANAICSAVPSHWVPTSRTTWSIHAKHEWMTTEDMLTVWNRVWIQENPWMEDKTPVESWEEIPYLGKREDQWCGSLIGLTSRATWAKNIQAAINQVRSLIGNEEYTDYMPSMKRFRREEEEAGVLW
Assay [7] has as its target T3, Long-chain-fatty-acid--AMP ligase FadD28 (Mycobacterium tuberculosis, UniProt P9WQ59).
T3 sequence (P9WQ59 whole entry): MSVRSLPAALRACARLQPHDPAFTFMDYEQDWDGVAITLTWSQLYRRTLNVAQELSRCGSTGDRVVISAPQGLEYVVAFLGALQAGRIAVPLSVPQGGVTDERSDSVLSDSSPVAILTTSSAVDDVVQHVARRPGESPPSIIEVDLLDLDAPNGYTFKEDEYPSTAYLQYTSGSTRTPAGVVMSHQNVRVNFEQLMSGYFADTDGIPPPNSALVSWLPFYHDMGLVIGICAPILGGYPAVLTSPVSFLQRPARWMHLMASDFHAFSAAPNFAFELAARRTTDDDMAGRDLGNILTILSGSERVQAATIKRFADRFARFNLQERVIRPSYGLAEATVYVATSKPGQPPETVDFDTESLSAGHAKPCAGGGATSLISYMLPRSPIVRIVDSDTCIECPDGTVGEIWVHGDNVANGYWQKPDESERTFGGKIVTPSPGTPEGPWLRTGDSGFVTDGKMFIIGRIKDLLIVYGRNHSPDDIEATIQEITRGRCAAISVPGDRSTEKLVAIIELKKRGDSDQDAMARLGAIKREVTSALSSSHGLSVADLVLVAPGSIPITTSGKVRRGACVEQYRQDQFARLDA
The experiment in a line: Fluorescence polarization aasay to screen for inhibitors that compete for the binding of FadD28 to a bisubstrate Measured in Biochemical System Using Plate Reader - 2147-01_Inhibitor_Dose_CherryPick_Activity. The format is functional, Mycobacterium tuberculosis H37Rv. In general terms: Polarisation of emitted light reports the rotation of a fluorescent probe.

For assay [8], the target named is Beta-galactosidase (Escherichia coli, UniProt Q8VNN2). Briefly: PubChem AID 485352. Format: functional.
Chain of Beta-galactosidase (Q8VNN2 whole entry): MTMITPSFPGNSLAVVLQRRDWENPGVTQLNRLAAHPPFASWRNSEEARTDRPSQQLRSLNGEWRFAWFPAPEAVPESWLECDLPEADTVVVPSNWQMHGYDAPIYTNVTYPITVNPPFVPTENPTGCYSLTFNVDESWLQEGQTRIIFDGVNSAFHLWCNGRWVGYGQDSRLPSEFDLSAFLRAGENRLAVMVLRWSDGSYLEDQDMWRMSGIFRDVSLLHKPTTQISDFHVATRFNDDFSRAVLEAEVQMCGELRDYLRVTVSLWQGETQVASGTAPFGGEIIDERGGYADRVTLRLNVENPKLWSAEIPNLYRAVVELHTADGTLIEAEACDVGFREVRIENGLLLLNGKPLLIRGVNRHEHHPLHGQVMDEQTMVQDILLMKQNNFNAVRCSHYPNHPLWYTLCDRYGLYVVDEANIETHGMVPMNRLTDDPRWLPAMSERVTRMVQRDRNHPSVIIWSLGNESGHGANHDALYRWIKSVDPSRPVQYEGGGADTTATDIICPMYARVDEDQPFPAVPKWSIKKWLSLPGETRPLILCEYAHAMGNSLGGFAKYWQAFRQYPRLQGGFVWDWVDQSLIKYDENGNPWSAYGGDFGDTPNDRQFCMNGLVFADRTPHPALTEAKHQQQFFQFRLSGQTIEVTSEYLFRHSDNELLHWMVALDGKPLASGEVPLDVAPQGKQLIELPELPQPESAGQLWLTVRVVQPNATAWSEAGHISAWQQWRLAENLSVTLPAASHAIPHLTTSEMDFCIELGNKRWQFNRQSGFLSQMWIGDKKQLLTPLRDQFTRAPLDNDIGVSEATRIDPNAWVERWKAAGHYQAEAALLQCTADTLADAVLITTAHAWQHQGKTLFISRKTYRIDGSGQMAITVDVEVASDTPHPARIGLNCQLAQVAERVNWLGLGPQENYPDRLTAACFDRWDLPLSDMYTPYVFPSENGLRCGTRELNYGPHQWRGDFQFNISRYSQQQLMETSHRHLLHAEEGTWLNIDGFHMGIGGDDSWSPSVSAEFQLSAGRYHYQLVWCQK
Assay [9] addresses T4, Heat shock factor protein 1 (Mus musculus, UniProt P38532).
T4 sequence (P38532 whole entry): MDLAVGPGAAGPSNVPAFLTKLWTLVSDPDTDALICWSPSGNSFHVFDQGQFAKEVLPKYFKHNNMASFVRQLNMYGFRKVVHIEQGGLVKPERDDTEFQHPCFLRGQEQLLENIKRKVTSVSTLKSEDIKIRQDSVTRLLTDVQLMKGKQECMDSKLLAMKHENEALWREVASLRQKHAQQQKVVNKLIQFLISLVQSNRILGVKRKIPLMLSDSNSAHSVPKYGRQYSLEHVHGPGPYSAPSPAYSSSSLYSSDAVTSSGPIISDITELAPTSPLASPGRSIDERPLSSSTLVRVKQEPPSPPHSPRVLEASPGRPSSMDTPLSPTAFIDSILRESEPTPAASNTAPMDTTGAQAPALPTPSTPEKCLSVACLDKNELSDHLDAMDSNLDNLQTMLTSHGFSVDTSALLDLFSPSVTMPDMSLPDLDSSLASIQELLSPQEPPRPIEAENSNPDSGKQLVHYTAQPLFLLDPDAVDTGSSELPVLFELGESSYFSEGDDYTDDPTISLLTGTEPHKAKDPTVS
Briefly: decrease of HSF1-responsive luciferase luminescence – cell-based, NIH3T3, dose retest, confirmation (AID 2382).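 Note: NIH3T3 fibroblasts with HSF1-driven luciferase reporter stressed by proteasome inhibitor MG132; luminescence from HSF1-driven luciferase expression after 8 hours of MG132 stress.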 Format: functional.

The target of assay [10] is Type-1 angiotensin II receptor (Homo sapiens, UniProt P30556). Briefly: antagonism of angiotensin II type 1 receptor – cell-based, uHTS hits, selectivity assay for APJ receptor antagonist project, dose response (AID 463214).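 Note: antagonist potency against angiotensin II stimulated AT1 response.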 Format: functional.
Chain of Type-1 angiotensin II receptor (P30556 whole entry): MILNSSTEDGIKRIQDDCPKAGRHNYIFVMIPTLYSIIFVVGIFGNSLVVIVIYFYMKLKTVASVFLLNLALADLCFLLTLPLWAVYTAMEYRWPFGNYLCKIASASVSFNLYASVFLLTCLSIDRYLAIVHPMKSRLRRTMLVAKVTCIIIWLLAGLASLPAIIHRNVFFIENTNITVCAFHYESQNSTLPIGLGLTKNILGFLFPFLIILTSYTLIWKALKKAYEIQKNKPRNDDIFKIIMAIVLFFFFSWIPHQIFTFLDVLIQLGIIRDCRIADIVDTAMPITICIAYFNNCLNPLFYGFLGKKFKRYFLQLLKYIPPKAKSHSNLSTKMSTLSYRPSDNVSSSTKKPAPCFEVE
Assay [11] can be described thus: THP-1 cell cytotoxicity, dose response, cytotoxicity control for non-replicating M. tuberculosis project (AID 489025). Format: functional.
Assay [12] in a line: HepG2 cell cytotoxicity, dose response, cytotoxicity control for non-replicating M. tuberculosis project (AID 489018). The format is functional. The settings on record: Mycobacterium tuberculosis.
Assay [13] in a line: Vero E6 cell cytotoxicity, dose response, cytotoxicity control for non-replicating M. tuberculosis project, secondary assay (AID 492998). The format is functional, VeroE6. The settings on record: Vero C1008.
A short description of assay [14]: cells. The format is functional.
Assay [15] relates to CHO. The experiment in a line: CHO cell viability loss, potency – luminescence, cytotoxicity control for TLR9-MyD88 binding inhibitor project, dose response (AID 588339).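 Note: CHO cells stably coexpressing TLR9 and MyD88 fusions from primary screen; compound exposure lasted 48 hours before viability readout.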 Format: functional, cell-based, hamster. The settings on record: Cricetulus griseus.
Assay [16] has as its target Heat shock protein HSP 90-alpha (Homo sapiens, UniProt P07900). The format is functional, organism-based.
Assay [17] addresses Beta Lactamase (Pseudomonas aeruginosa, UniProt Q932Y6). The experiment in a line: BLA reporter interference, concentration series – BLA reporter cells, FRET fluorescence, artefact control for TLR9-MyD88 binding inhibitor project, dose response (AID 588341).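 Note: cell based assay in CHO-K1 cells stably expressing beta-lactamase.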 The format is cell-based.
Assay [18] deals with INS1. The experiment in a line: INS-1E survival protection against cytokine death – cell-based, luminescence, retest, dose response (AID 449756).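 Note: cell death triggered by IL-1 beta plus TNF-alpha plus IFN-gamma mixture; protective hits raise ATP signal compared with cytokine alone wells.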 Format: functional. The settings on record: Rattus norvegicus.
Assay [19] can be described thus: Fluorescence-based cell-based high throughput dose response assay for inhibitors of the interaction of nucleotide-binding oligomerization domain containing 2 (NOD2) and the receptor-interacting serine-threonine kinase 2 (RIPK2). Format: functional. The following applies: Homo sapiens.
The target of assay [20] is Paired box protein Pax-8 (Homo sapiens, UniProt Q06710). Briefly: PAX8 transcriptional activity inhibition in RMG-I – RMG-I cells, luciferase, cherry-pick, dose response (AID 687027).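 Note: luciferase reporter driven by Pax8 target thyroperoxidase promoter measured by SteadyGlo luminescence.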 Format: functional, cell-based.
Chain of Paired box protein Pax-8 (Q06710 whole entry): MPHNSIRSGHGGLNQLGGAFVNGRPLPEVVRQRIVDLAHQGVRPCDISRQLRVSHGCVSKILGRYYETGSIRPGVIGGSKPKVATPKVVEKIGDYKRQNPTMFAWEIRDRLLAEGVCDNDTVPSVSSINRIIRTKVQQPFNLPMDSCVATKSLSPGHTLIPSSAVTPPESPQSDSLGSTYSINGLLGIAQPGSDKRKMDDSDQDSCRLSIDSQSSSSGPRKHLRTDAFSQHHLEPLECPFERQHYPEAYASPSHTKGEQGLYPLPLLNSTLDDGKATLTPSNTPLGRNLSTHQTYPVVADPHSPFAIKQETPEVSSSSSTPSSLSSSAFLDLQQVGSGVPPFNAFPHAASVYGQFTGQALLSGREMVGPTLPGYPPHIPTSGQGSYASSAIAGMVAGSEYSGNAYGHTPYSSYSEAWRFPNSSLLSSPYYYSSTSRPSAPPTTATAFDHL
The nature of assay [21]: general cell-killing toxicity readout – plate reader, dry powder samples, cytotoxicity control for PAX8 inhibitor project, dose response (AID 743021). Format: functional, cell-based.

Activity calls are given as the source filed them.

Chain of Beta Lactamase (Q932Y6 whole entry): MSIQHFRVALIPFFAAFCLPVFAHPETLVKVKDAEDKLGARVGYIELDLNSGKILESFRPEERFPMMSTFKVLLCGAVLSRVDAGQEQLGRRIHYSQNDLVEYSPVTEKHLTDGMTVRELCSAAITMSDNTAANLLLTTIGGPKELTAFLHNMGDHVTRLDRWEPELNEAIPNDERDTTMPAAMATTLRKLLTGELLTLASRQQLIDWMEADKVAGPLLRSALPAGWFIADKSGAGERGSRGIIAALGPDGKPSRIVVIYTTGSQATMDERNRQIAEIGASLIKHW

As for `CCc1ccc(/C=C/C(=O)C2C(=O)c3ccccc3C2=O)cc1`, the AC50 was 4.59 µM (active) in assay [1], 51.1 µM (active) in [2], 27.4 µM (active) in assay [4] and 80.4 µM (active) in assay [7]. Also, the CC50 in assay [3] is 34.7 µM (active). Further, the EC50 in [5] was 22.7 µM (active). The IC50 in assay [6] was 62.8 µM (active).

Regarding `O=C(C#Cc1ccccc1)c1ccco1`, the EC50 was > 40 µM (inactive) in [8] and 6.57 µM (active) in assay [9]. Also, the IC50 in [10] is 8.43 µM (active); in assay [14], 1.32 µM (active); in assay [15] it was 1.82 µM (active); in assay [17], > 49.8 µM (inactive); in [19] it was 2.25 µM (active). Also, the CC50 in assay [11] was 11 µM (active); in assay [12] it was 9.8 µM (active); in [13], 7.89 µM (active). The concentration at half-maximal activity (AC50) in [16] is 3.05 µM (active); in assay [18] it was 6.11 µM (active); in assay [20], 9.61 µM (active); in [21] it was 23.7 µM (active).

A word on the AC50: it is the concentration giving half of the maximal activity seen. As usually defined, the CC50 is the concentration giving 50% cytotoxicity. Usually EC50 stands for the concentration that produces a half-maximal response. Usually IC50 stands for the concentration that gives 50% inhibition.
